Measured values from ChEMBL document CHEMBL1150141, “Cytotoxic diarylheptanoids from the roots of Juglans mandshurica” (J Nat Prod, 2002).
Values after ≈ are worked out from the molar mass of the structure shown.

Experiments:
HT-29 = assay: Cytotoxicity against human HT-29 cells by MTT assay; format: functional, cell-based
A549 = assay: Cytotoxicity against human A549 cells by MTT assay; format: functional, cell-based

SMILES: COc1cc(C2CC(O)CC(C(O)Cc3ccc(O)cc3)O2)ccc1O (configuration not stated)
- IC50 (HT-29): > 50 µg/mL
- IC50 (A549): > 50 µg/mL

SMILES: COc1cc(CC/C=C/C(=O)CCc2ccc(O)cc2)ccc1O
- IC50 (HT-29): 8.2 µg/mL (≈ 25.1 µM)
- IC50 (A549): 5.4 µg/mL (≈ 16.5 µM)

SMILES: COc1cc2ccc1Oc1cc(ccc1O)CCC(=O)CCCC2
- IC50 (HT-29): 5.3 µg/mL (≈ 16.2 µM)
- IC50 (A549): 2.2 µg/mL (≈ 6.74 µM)

SMILES: CC(C)(O)[C@@H]1CC[C@@]2(C)CCC[C@@](C)(O)[C@@H]2C1
- IC50 (HT-29): 12.9 µg/mL (≈ 53.7 µM)
- IC50 (A549): 9.9 µg/mL (≈ 41.2 µM)

SMILES: COc1ccc2cc1Oc1ccc(c(O)c1OC)CCCCC(O)CC2 (configuration not stated)
- IC50 (HT-29): 23.9 µg/mL (≈ 66.7 µM)
- IC50 (A549): 11.5 µg/mL (≈ 32.1 µM)

SMILES: COC(=O)C(O)(c1cc2c(c3oc([C@]4(C)C[C@@H]4C)cc(=O)c13)C(=O)c1c(ccc([C@H]3C[C@](C)(N(C)C)[C@H](O[C@@H]4C[C@H](OC)[C@H](O)[C@@H](C)O4)[C@H](C)O3)c1O)C2=O)[C@H]1O[C@H](C)[C@@H](O)[C@@H](OC)[C@@H]1O (some centres not stated) [ALTROMYCIN B]
- IC50 (HT-29): 3.9 µg/mL (≈ 4.22 µM)
- IC50 (A549): 4.2 µg/mL (≈ 4.55 µM)
